As a reminder, the EC50 is the concentration that produces a half-maximal response. Read a low EC50 as higher potency in that assay.

EC50 and activation data for 17 molecules are collected here from patent US10793557B2, “Sting agonist compounds” (Merck Sharp & Dohme Corp., priority 2018, dated 2020).

The target of one assay is T1, full-length HAQ STING (Homo sapiens, UniProt Q86WV6, G230A/H232R/R293Q/R71H).
T1 construct: AviTag (after GG linker) (C); HRV3C cleavage site (after GS linker) (C); HIS8 (C); made in house; host or cells: Trichoplusia ni (Hi-Five) insect cells infected with baculovirus (virus generated and amplified in Sf21 cells); used as a washed membrane preparation
Nature of the assay: 3H-cGAMP filtration binding assay (HAQ STING). The following applies: competition with tritiated cGAMP, HAQ STING membrane. The method in brief:
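Hi-Five (T. ni) membranes overexpressing the STING variant (2.2 ug/ml working) preincubated with compound 60 min at RT in PBS, then [3H]cGAMP (8 nM working stock) added for 60 min at RT. Bound radioactivity captured on GF/B filters and counted by scintillation; EC50 from 4-parameter fit of control-normalized activity.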

The next assay deals with T2, full-length WT STING (Homo sapiens, UniProt Q86WV6, H232R).
T2 construct: AviTag (after gg linker) (C); HRV3C cleavage site (after gs linker) (C); HIS8 (C); made in house; host or cells: Trichoplusia ni (Hi-Five) insect cells infected with baculovirus (virus generated and amplified in Sf21 cells); used as a washed membrane preparation
As to the kind of experiment: 3H-cGAMP filtration binding assay (WT STING). The note with it: competition with tritiated cGAMP, WT STING membrane. Summed up: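 EC50 values come from 4-parameter fits of remaining filter-bound tritium versus log concentration (10-point, 1:3 dilution). Insect-cell membranes carrying full-length WT STING were incubated 60 min at RT with compound and tritiated cGAMP (16 nM working stock) before filtration.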

The subject of assay [1] is secretion of interferon-beta from THP1 cells. Nature of the assay: IFN-β secretion in THP1 cell culture (5 h). In kind it is cell-based. The following applies: Homo sapiens, THP-1, 5 h, 30 uM cGAMP = 100%; for activation at 30 µM: compound at 30 μM, read-out: % Effect at 30 μM relative to 2′3′-cGAMP. The method in brief: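 IFN-β in supernatant measured by AlphaLISA after a 5 h, 37 °C incubation of THP1 cells with compound (10 concentrations, 30000 down to 1.5 nM, 0.3% DMSO) in low-serum RPMI. Values scaled between DMSO and 30 uM cGAMP controls; 4-parameter curve fit yields EC50.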

T1 sequence (Q86WV6 with tags, fused parts or gaps R71H/G230A/H232R/R293Q): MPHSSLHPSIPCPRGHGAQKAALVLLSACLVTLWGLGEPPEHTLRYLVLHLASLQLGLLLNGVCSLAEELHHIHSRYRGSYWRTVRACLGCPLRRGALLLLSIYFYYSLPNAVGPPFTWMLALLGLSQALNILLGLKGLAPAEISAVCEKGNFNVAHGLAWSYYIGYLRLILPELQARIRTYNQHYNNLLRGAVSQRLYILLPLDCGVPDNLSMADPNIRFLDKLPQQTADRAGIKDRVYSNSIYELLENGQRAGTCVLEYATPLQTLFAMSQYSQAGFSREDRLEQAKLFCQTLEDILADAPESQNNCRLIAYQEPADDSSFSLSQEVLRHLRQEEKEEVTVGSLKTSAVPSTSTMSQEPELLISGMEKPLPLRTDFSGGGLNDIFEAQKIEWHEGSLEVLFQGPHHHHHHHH
T2 sequence (Q86WV6 with tags, fused parts or gaps H232R): as the sequence (Q86WV6 with tags, fused parts or gaps R71H/G230A/H232R/R293Q) above, with H71R, A230G, Q293R counted along it

Turning to `COc1cc2sc(C(=O)C[C@H](C)C(=O)O)cc2cc1OCCOc1cc2cc(C(=O)C[C@H](C)C(=O)O)sc2cc1OC` [Example 76, (2S,2′S)-4,4′-((ethane-1,2-diylbis(oxy))bis(6-methoxybenzo[b]thiophene-5,2-diyl))bis(2-methyl-4-oxobutanoic acid)], the values for the EC50 on full-length HAQ STING and on full-length WT STING were 22 nM and 56 nM, respectively. Also, the activation at 30 µM in assay [1] was found to be 44%.
Taken in the same sequence, the figures for `C[C@@H](CC(=O)c1cc2cc(OCCCOc3cc4cc(C(=O)C[C@H](C)C(=O)O)sc4cc3OC(F)F)c(OC(F)F)cc2s1)C(=O)O` [Example 79, (2S,2′S)-4,4′-(1,3-propanediylbis{oxy[6-(difluoromethoxy)-1-benzothiene-5,2-diyl]})bis(2-methyl-4-oxobutanoic acid)] were 5 nM, 12 nM and 49%.
Take `COc1cc2sc(C(=O)[C@H]3C[C@@H]3C(=O)O)cc2cc1OCCCOc1cc2cc(C(=O)[C@@H]3C[C@H]3C(=O)O)sc2cc1OC` [Example 80, rac-(1S,2S)-2-(5-(3-((2-((1R, 2R)-2-carboxy-cyclopropane-1-carbonyl)-6-methoxybenzo[b]thiophen-5-yl)oxy)propoxy)-6-methoxybenzo[b]thiophene-2-carbonyl)cyclopropane-1-carboxylic acid]: the EC50 on full-length HAQ STING is 1300 nM; at full-length WT STING it was 12700 nM. In assay [1], the activation at 30 µM came out at 12%.
Taken in the same sequence, the figures for `COc1cc2sc(C(=O)CCC(=O)O)cc2nc1OCCOc1c(OC)cc2sc(C(=O)CCC(=O)O)cc2c1F` [Example 81, 4-(5-(2-((2-(3-carboxypropanoyl)-4-fluoro-6-methoxybenzo[b]thiophen-5-yl)oxy)ethoxy)-6-methoxythieno[3,2-b]pyridin-2-yl)-4-oxobutanoic acid] were 2 nM, 23 nM and 120%.
Taken in the same sequence, the figures for `COc1cc2sc(C(=O)CCC(=O)O)cc2nc1OCCCOc1c(OC)cc2sc(C(=O)CCC(=O)O)cc2c1F` [Example 82, 4-(5-(3-((2-(3-carboxypropanoyl)-4-fluoro-6-methoxybenzo[b]thiophen-5-yl)oxy)propoxy)-6-methoxythieno[3,2-b]pyridin-2-yl)-4-oxobutanoic acid] were 1 nM, 2 nM and 158%.
On the same counts, the results for `COc1cc2sc(C(=O)CCC(=O)O)cc2nc1OCCOc1c(OC)cc2sc(C(=O)C[C@H](C)C(=O)O)cc2c1F` [Example 83, (S)-4-(5-(2-((2-(3-carboxypropanoyl)-6-methoxythieno[3,2-b]pyridin-5-yl)oxy)ethoxy)-4-fluoro-6-methoxybenzo[b]thiophen-2-yl)-2-methyl-4-oxobutanoic acid] are 2 nM, 9 nM and 107%.
With `COc1cc2sc(C(=O)C[C@H](C)C(=O)O)cc2cc1CCCOc1c(OC)cc2sc(C(=O)[C@@H]3C[C@H]3C(=O)O)cc2c1F` [Example 84, trans-2-(5-(3-(2-((S)-3-carboxybutanoyl)-6-methoxybenzo[b]thiophen-5-yl)propoxy)-4-fluoro-6-methoxybenzo[b]thiophene-2-carbonyl)-cyclopropanecarboxylic acid], the EC50 on full-length HAQ STING turned out to be 50 nM; on full-length WT STING it was 1060 nM. Further, the activation at 30 µM in assay [1] was found to be 148%.
Taken in the same sequence, the figures for `COc1cc2sc(C(=O)C[C@H](C)C(=O)O)cc2c(F)c1OCCCOc1c(OC)cc2sc(C(=O)[C@@H]3C[C@H]3C(=O)O)cc2c1F` [Example 86, trans-2-(5-(3-((2-((S)-3-carboxybutanoyl)-4-fluoro-6-methoxybenzo[b]thiophen-5-yl)oxy)propoxy)-4-fluoro-6-methoxybenzo[b]thiophene-2-carbonyl)cyclopropane carboxylic acid] were 1 nM, 9 nM and 131%.
Regarding `COc1cc2sc(C(=O)[C@H]3C[C@@H]3C(=O)O)cc2c(F)c1OCCCOc1c(OC)cc2sc(C(=O)[C@@H]3C[C@H]3C(=O)O)cc2c1F` [Example 87, trans-2-(5-(3-((2-((1R,2R)-2-carboxycyclopropanecarbony)-4-fluoro-6-methoxybenzo[b]thiophen-5-yl)oxy)propoxy)-4-fluoro-6-methoxybenzo[b]thiophene-2-carbonyl)cyclopropane carboxylic acid], the values for the EC50 on full-length HAQ STING and at full-length WT STING were 167 nM and 1920 nM, respectively. Also, the activation at 30 µM in assay [1] is 120%.
Taken in the same sequence, the figures for `COc1cc2sc(C(=O)C[C@H](C)C(=O)O)cc2cc1OCCCOc1c(OC)cc2sc(C(=O)[C@@H]3C[C@H]3C(=O)O)cc2c1F` [Example 89, trans-2-(5-(3-((2-((S)-3-carboxybutanoyl)-6-methoxybenzo[b]thiophen-5-yl)oxy)propoxy)-4-fluoro-6-methoxybenzo[b]thiophene-2-carbonyl)cyclopropane carboxylic acid] were 2 nM, 94 nM and 112%.
On the same counts, the results for `COc1cc2cc(C(=O)C[C@H](C)C(=O)O)sc2cc1OCCCOc1c(OC)cc2sc(C(=O)[C@@H]3C[C@H]3C(=O)O)cc2c1F` [Example 90, trans-2-(5-(3-((2-((S)-3-carboxybutanoyl)-5-methoxybenzo[b]thiophen-6-yl)oxy)propoxy)-4-fluoro-6-methoxybenzo[b]thiophene-2-carbonyl)cyclopropane carboxylic acid] are 58 nM, 978 nM and 125%.
As to `COc1cc2sc(C(=O)C[C@@H](C)C(=O)O)cc2cc1CCCOc1c(OC)cc2sc(C(=O)C[C@H](C)C(=O)O)cc2c1F` [Example 91, (R)-4-(5-(3-((2-((S)-3-carboxybutanoyl)-4-fluoro-6-methoxybenzo[b]thiophen-5-yl)oxy)propyl)-6-methoxybenzo[b]thiophen-2-yl)-2-methyl-4-oxobutanoic acid], the values for the EC50 at full-length HAQ STING and at full-length WT STING were 7 nM and 30 nM, respectively. For the same molecule, the activation at 30 µM in assay [1] is 109%.
On to `COc1cc2sc(C(=O)C[C@H](C)C(=O)O)cc2cc1OCCCCOc1cc2cc(C(=O)C[C@H](C)C(=O)O)sc2cc1OC` [Example 92, (2S,2′S)-4,4′-(5,5′-(butane-1,4-diylbis(oxy))bis(6-methoxybenzo[b]thiophene-5,2-diyl))bis(2-methyl-4-oxobutanoic acid)], for which the concentration giving a half-maximal response (EC50) was found to be 3 nM on full-length HAQ STING and 7 nM at full-length WT STING. Also, the activation at 30 µM in assay [1] worked out at 62%.
Taken in the same sequence, the figures for `COc1cc2sc(C(=O)C[C@H](C)C(=O)O)cc2cc1OCCCCOc1c(OC)cc2sc(C(=O)C[C@H](C)C(=O)O)cc2c1F` [Example 93, (S)-4-(5-(4-((2-((S)-3-carboxybutanoyl)-4-fluoro-6-methoxybenzo[b]thiophen-5-yl)oxy)butoxy)-6-methoxybenzo[b]thiophen-2-yl)-2-methyl-4-oxobutanoic acid] were 1 nM, 3 nM and 87%.
As for `COc1cc2sc(C(=O)C[C@H](C)C(=O)O)cc2cc1OCCCCOc1cc2sc(C(=O)C[C@H](C)C(=O)O)cc2cc1OC` [Example 94, (S)-4-(5-(4-((2-((S)-3-carboxybutanoyl)-5-methoxybenzo[b]thiophen-6-yl)oxy)butoxy)-6-methoxybenzo[b]thiophen-2-yl)-2-methyl-4-oxobutanoic acid], the EC50 on full-length HAQ STING turned out to be 6 nM; at full-length WT STING, 131 nM. For the same molecule, the activation at 30 µM in assay [1] amounted to 100%.
As to `COc1cc2cc(C(=O)C[C@H](C)C(=O)O)sc2cc1OCCCCOc1cc2sc(C(=O)C[C@H](C)C(=O)O)cc2cc1OC` [Example 95, (2S,2′S)-4,4′-(6,6′-(butane-1.4-diylbis(oxy))bis(5-methoxybenzo[b]thiophene-6,2-diyl))bis(2-methyl-4-oxobutanoic acid)], the values for the EC50 on full-length HAQ STING and on full-length WT STING were 237 nM and 813 nM, respectively. Further, the activation at 30 µM in assay [1] is 72%.
For `COc1cc2sc(C(=O)C[C@H](C)C(=O)O)cc2cc1CCCOc1c(OC)cc2sc(CC[C@H](C)C(=O)O)cc2c1F` [Example 100, (S)-4-(5-(3-((2-((S)-3-carboxybutyl)-4-fluoro-6-methoxybenzo[b]thiophen-5-yl)oxy)propyl)-6-methoxybenzo[b]thiophen-2-yl)-2-methyl-4-oxobutanoic acid], the EC50 is 277 nM at full-length HAQ STING and 2240 nM at full-length WT STING. Also, in assay [1] (compound at 3 uM, read-out: % Effect relative to 2′3′-cGAMP (@ 3 uM)), the activation at 3 µM is 33%.
